Series [1] relates to RSV. To be noted: cultures of two human airway cell lines (Lai, Stein et al. 2008); cited from earlier work.
Series [2] deals with RSV. The conditions noted are these: BALB/c mice, intranasal treatment before RSV inoculation, cited from earlier work.
For series [3], the system named is exon 23 of the dystrophin gene. The conditions noted are these: in vivo; cited from earlier work.
The next series has as its system dystrophin mRNA exon 23. The series can be described thus: Exon 23 skipping in MDX mice, end-point PCR on muscle RNA.
The format of series [4] is in vivo, mouse. The protocol:
Mice were treated with the conjugates described in Example 30, and KIM-1 levels, BUN levels and survival rate were determined according to the general procedures described in Example 32 below and known in the art. […]. The day of dosing on the study was designated as Study Day 1. Conjugate was administered via tail vein as a slow push bolus (˜5 seconds). All animals were dosed over two days. Groups 1-8 were dosed on the first day and Groups 9-16 were dosed on the second day. Treatment Groups (TG) 13-16 were dosed per the table above. […] The first 2 TG of each conjugate were dosed per the table above. If all animals in 100 mg/kg group died then the remaining TGs of that test article would not be dosed and the study would end. If at least one animal survived 2 hours post-dose in the 100 mg/kg group, then the 150 mg/kg group was dosed. If all animals in the 150 mg/kg group died then the remaining TGs of that test article would not be dosed and the study would end. […]
Any animal showing signs of distress, particularly if death appeared imminent was humanely euthanized according to Numira Biosciences Standard Operating Procedures. Body weights were recorded on the day after arrival, the day of dosing, and the day of necropsy. Detailed clinical observations were conducted and recorded at 0 minutes, 15 minutes, and 2 hours post-dose to assess tolerability of injections.

The test system of another series is KIM-1. The class given is in vivo, mouse. To be noted: Example 32, FIG. 10; C57/BL6 mice, single i.v. tail vein injection, kidney qRT-PCR vs GAPDH. The protocol: Mice were treated with the conjugates described in Example 30, and KIM-1 levels, BUN levels and survival rate were determined according to the general procedures described in Example 32 below and known in the art. […]. The right and left kidneys were collected. Tissues were collected within minutes or less of euthanasia. All instruments and tools used were changed between treatment groups. All tissues were flash frozen and stored at <−70° C. as soon as possible after collection.
Kidney injury marker data was obtained as follows. RNA from mouse kidney tissue was purified using Quick Gene Mini80 Tissue Kit SII (Fuji Film). Briefly, approximately 40 mg of tissue was added to 0.5 ml lysis buffer (5 μl […] in 0.5 ml lysis buffer) in a MagnaLyser Green Bead vial (Roche) and homogenized using MagNA Lyser (Roche) with 2 sets of 3×3800 RPM and 3 sets of 1×6500 RPM.
Samples were cooled on ice 3-4 minutes between each low speed set and between each higher speed run. Homogenates were centrifuged 5 minute at 400×g at room temperature. The homogenate was immediately processed for RNA purification according to the Quick Gene Mini80 protocol. […] Total RNA was quantitated with a NanoDrop 2000 spectrophotometer (Thermo Scientific). […]
Analysis was performed using ΔΔCt method. […] Fold change range calculated: 2^−(ΔΔCt+SD) to 2^−(ΔΔCt-SD). […]

{EG3} = triethylene glycol 5' cap structure on the morpholino oligomer

Results on 4 substances are retold here after patent US11732259B2, “Peptide oligonucleotide conjugates” (Sarepta Therapeutics, Inc., priority 2011, dated 2023).

Protocol for dystrophin mRNA exon 23: MDX mice were dosed once (50 mg/kg) by tail vein injection with one of the following conjugates:
One week post-injection, the MDX mice were sacrificed and RNA was extracted from various muscle tissues. End-point PCR was used to determine the relative abundance of dystrophin mRNA containing exon 23 and mRNA lacking exon 23 due to antisense-induced exon skipping. Percent exon 23 skipping is a measure of antisense activity in vivo.

For the substance “TAATGGGATCCATTTTGTCCC (all phosphorodiamidate morpholino (PMO); peptide-conjugated morpholino (PPMO), peptide not given here) [RSV-AUG-2, peptide conjugated PMO (PPMO) targeting the translation start-site region of RSV L mRNA]”, the “Reduction of viral titers” value in the series with RSV [1] was over 2.0 log10. Besides, the “Reduction in viral titer in lung tissue” value with RSV [2] (day 5 postinfection) is given as 1.2 log10. Besides, in the series on RSV [2] (day 7 postinfection), the Pulmonary inflammation result is listed as “attenuated”.
For the substance “5′-EG3-M23D-BX(RXRRBR)2 (GGCCAAACCTCGGCTTACCTGAAAT; all phosphorodiamidate morpholino (PMO), 5' {EG3}; morpholino, carrier peptide BX(RXRRBR)2 conjugated at 3' end) [AVI-5225]”, in series [3], the “Activity in the MDX mouse model for DMD” value is listed as “activity”. Besides, the “Dose response of exon 23 skipping” value in the series on dystrophin mRNA exon 23 (one week post-treatment, AVI-5225 compared with the other conjugates) was “similar”.
As to 5′-EG3-M23D-G(R)8 [NG-11-0216], the Survival rate entry in series [4] (Example 31, FIG. 7B, compared with the XB linked conjugate / amongst the arginine polymers) is reported as “least tolerated of the arginine polymers”.
5′-EG3-M23D-G(R)6 [NG-11-0009]: in series [4] (Example 31, data not shown), the “Doses at which all mice survived” value is “up to 400 mg/kg”. Moreover, the KIM concentrations entry in the series with KIM-1 is “lowest”. In addition, in the series on dystrophin mRNA exon 23 (dosed once 50 mg/kg tail vein, one week post-injection, diaphragm (FIGS. 5B, 6B), amongst the arginine series), the “Percent exon 23 skipping, diaphragm” value is “highest efficacy”. Besides, in the series on dystrophin mRNA exon 23 (dosed once 50 mg/kg tail vein, one week post-injection, quadriceps (FIGS. 5A, 6A), amongst the arginine series), the “Percent exon 23 skipping, quadriceps” value is recorded as “highest efficacy”.
